Results: US11795460B2, “Compositions and methods for TTR gene editing and treating ATTR amyloidosis” (Intellia Therapeutics, Inc., priority 2017, dated 2023)

How the values were obtained:
TTR [1] = experiment: TTR editing in HepG2 cells transfected with Spy Cas9 mRNA and dgRNAs (Table 6); type: cell-based, human; conditions: HepG2 cells co-transfected with Spy Cas9 mRNA (SEQ ID NO:2) and dgRNAs
How it was run: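 Percent editing is the share of sequencing reads at the TTR target locus that carry insertions, deletions or substitutions, measured by Illumina amplicon sequencing aligned to hg38. Samples came from HepG2 cells lipofected first with 100 ng Cas9 mRNA and then with dual-guide RNA (25 nM crRNA/tracer), collected 24–72 h later.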

TTR [2] = experiment: TTR editing in primary human hepatocytes transfected with Spy Cas9 protein (RNP) loaded with dgRNAs (Table 8); type: cell-based; conditions: dgRNA transfected with Spy Cas9 protein (RNP)
How it was run: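 Primary human hepatocytes were lipofected (RNAiMAX) with RNP of Spy Cas9 (10 nM) plus pre-annealed crRNA (10 nM) and trRNA (10 nM) and harvested 24, 48 or 72 h later. Target-site amplicons were sequenced on Illumina MiSeq and aligned to hg38; percent editing = reads with indels or substitutions over total reads.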

off-target genomic sites = experiment: Off-target oligo insertion based assay in HEK293_Cas9 cells, dgRNAs and sgRNAs (Tables 23, 24); type: cell-based, human; conditions: Table 23; TTR dgRNAs in HekCas9 cells, oligo insertion based assay
How it was run: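 In HEK293 cells constitutively expressing Spy Cas9, crRNA (15 nM) plus trRNA (15 nM), or modified sgRNAs, were lipofected with donor oligo (10 nM). Genomic DNA was collected at 24 h, and oligo-insertion libraries were sequenced on MiSeq/HiSeq to map potential off-target cleavage sites.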

Sequence	Avg % Deletion (TTR [1]) [%]	Avg % Edit (TTR [1]) [%]	Avg % Insert (TTR [1]) [%]	Avg % Deletion (TTR [2]) [%]	Avg % Edit (TTR [2]) [%]	Avg % Insert (TTR [2]) [%]	# Sites (off-target integration sites detected) (off-target genomic sites)
ACACAAAUACCAGUCCAGCA (tested as dual guide RNA, chemistry not given here) [CR003339]	55.84	68.21	12.37	36.21	45.06	8.85	3
AGCCUUUCUGAACACAUGCA (tested as dual guide RNA, chemistry not given here) [CR003351]	25.57	57.54	31.98	16.36	40.28	23.92	1
ACGUGUCUUCUCUACACCCA (tested as dual guide RNA, chemistry not given here) [CR005302]	2.29	33.21	30.93	0.97	48.29	47.32	1
CUCUGCAUGCUCAUGGAAUG (tested as dual guide RNA, chemistry not given here) [CR003369]	5.51	22.62	17.11	1.31	12.98	11.67	2
GCCGUGGUGGAAUAGGAGUA (tested as dual guide RNA, chemistry not given here) [CR003387]	0.12	1.39	1.27	0.11	1.79	1.68	6
GCAACUUACCCAGAGGCAAA (tested as dual guide RNA, chemistry not given here) [CR003356]	3.72	9.39	5.67	1.29	7.53	6.24	4
AAAGGCUGCUGAUGACACCU (tested as dual guide RNA, chemistry not given here) [CR003353]	3.68	60.40	56.71	2.16	61.54	59.38	2
CUGCUCCUCCUCUGCCUUGC (tested as dual guide RNA, chemistry not given here) [CR003335]	4.23	37.19	32.96	1.63	51.14	49.51	0
UGGACUGGUAUUUGUGUCUG (tested as dual guide RNA, chemistry not given here) [CR003340]	31.65	37.76	6.12	4.50	10.44	5.94	0
AGGCAGUCCUGCCAUCAAUG (tested as dual guide RNA, chemistry not given here) [CR003348]	21.40	38.44	17.04	9.44	23.18	13.74	3
